From EP4631937A1, “CRYSTALLINE FORM OR AMORPHOUS FORM OF OXOISOINDOLE-5-FORMAMIDE COMPOUND OR SALT AND SOLVATE THEREOF” (Hangzhou Glubio Pharmaceutical Co., Ltd., priority 2022, dated 2024)

Assay: Pharmacokinetic evaluation in mice by gavage
Format: in vivo
Parameters: AUClast /D: unit not given here
Details: CD1 male mice, oral, 30 mg/kg
Protocol: CD1 male mice were selected and the test compound was administered orally. The drug concentration in plasma at different time points was quantitatively determined by LC/MS/MS to evaluate the pharmacokinetic characteristics of the test drug in mice.
Experimental materials: CD1 Mouse (male, 20-30 g, 6-8 weeks old, Zhejiang Weitong Lihua).
Blood was collected from the dorsal plantar vein at 0.25 h, 0.5 h, 1 h, 2 h, 4 h, 6 h, 8 h and 24 h after administration, placed in an anticoagulant tube containing EDTA-K2 and mixed, and centrifuged at 4°C and 4000 g for 5 minutes. The drug concentration in blood was determined by LC-MS/MS, and the relevant pharmacokinetic parameters were calculated by the non-compartmental linear/log trapezoidal method using Phoenix WinNonlin 6.3 pharmacokinetic software.

[1] = mouse, plasma, 25 mM citrate buffer (pH 3) containing 5% Tween 80

With O=C1CC[C@H](N2Cc3cc(C(=O)N[C@H](c4ccc(Cl)cn4)C4CCC4)ccc3C2=O)C(=O)N1 [Amorphous] the “AUClast /D” value (25 mM citrate buffer (pH 3) containing 5% Tween 80, dose-normalised) was 1178 ± 116, the AUC(0-inf) [1] was 35900 ± 3760 ng·h/mL and the AUC(0-t) [1] was 35300 ± 3480 ng·h/mL. For the same compound, the Cmax [1] was 17800 ± 3130 ng/mL, the Tmax [1] was 0.42 h and the half-life [1] was 3.1 h.
